Test results from patent publication US10183962B2, “Synthetic oligomers of Neisseria meningitis serogroup X and process of preparing them” (MSD WELLCOME TRUST HILLEMAN LA[…]. LTD., priority 2014, dated 2019).

Test system: rabbit antiserum against N. meningitidis serogroup X (anti-Men-X antibodies binding to bacterial Men-X polysaccharide)
Experiment: competition (inhibition) ELISA, antigenicity of synthetic Men-X tetramer and its TT conjugate
Conditions: antigen at 10-1000 μg oligosaccharide/ml; antiserum diluted eight thousand fold; relative to no antigen control; FIG. 1, alpha anomer, triplicate

6-Aminohexyl (2-acetamido-2-deoxy-α-D-glucopyranosyl phosphate)-(1→4)-(2-acetamido-2-deoxy-α-D-glucopyranosyl phosphate)-(1→4)-(2-acetamido-2-deoxy-α-D-glucopyranosyl phosphate)-(1→4)-2-acetamido-2-deoxy-α-D-glucopyranoside, tris-sodium salt [Men X Tetramer 1]
percentage inhibition of binding of anti-Men-X antibodies to bacterial Men-X polysaccharide coated on plate: up to 68%
